Experimental data: the NIST ThermoML archive (doi:10.1016/j.fluid.2018.05.028)

Test: xn = mol fraction of the nth substance listed
Conditions: 101 kPa, Liquid; for viscosity: Concentric cylinders viscometry; for speed of sound: Single path-length method; for mass density: Vibrating tube method

CCCCCCCCCCCCCCCC [hexadecane] + CCCO
Conditions	mass density [kg/m3]	speed of sound [m/s]	viscosity [mPa·s]
293.15 K, x2 = 0	773.35	1357.4	3.408
293.15 K, x2 = 0.1	773.48	1349.3	3.214
293.15 K, x2 = 0.2	774.05	1342.3	3.093
293.15 K, x2 = 0.3	774.88	1334.9	2.99
293.15 K, x2 = 0.4	776.01	1326.8	2.916
293.15 K, x2 = 0.5	777.51	1317.5	2.845
293.15 K, x2 = 0.6	779.56	1306.4	2.776
293.15 K, x2 = 0.7	782.34	1293.2	2.671
293.15 K, x2 = 0.8	786.35	1275.7	2.541
293.15 K, x2 = 0.9	792.43	1252.8	2.388
298.15 K, x2 = 0	769.87	1338.5	3.035
298.15 K, x2 = 0.1	769.92	1330.3	2.858
298.15 K, x2 = 0.2	770.46	1323.2	2.754
298.15 K, x2 = 0.3	771.25	1315.8	2.665
298.15 K, x2 = 0.4	772.34	1307.7	2.596
298.15 K, x2 = 0.5	773.81	1298.5	2.526
298.15 K, x2 = 0.6	775.81	1287.5	2.463
298.15 K, x2 = 0.7	778.55	1274.5	2.374
298.15 K, x2 = 0.8	782.5	1257.4	2.264
298.15 K, x2 = 0.9	788.52	1234.9	2.131
303.15 K, x2 = 0	766.4	1319.8	2.708
303.15 K, x2 = 0.1	766.38	1311.4	2.55
303.15 K, x2 = 0.2	766.87	1304.3	2.45
303.15 K, x2 = 0.3	767.62	1296.9	2.376
303.15 K, x2 = 0.4	768.67	1288.8	2.314
303.15 K, x2 = 0.5	770.09	1279.7	2.244
303.15 K, x2 = 0.6	772.04	1268.8	2.187
303.15 K, x2 = 0.7	774.73	1256	2.108
303.15 K, x2 = 0.8	778.64	1239.2	2.012
303.15 K, x2 = 0.9	784.59	1217.2	1.89
308.15 K, x2 = 0	762.95	1301.3	2.432
308.15 K, x2 = 0.1	762.83	1292.8	2.288
308.15 K, x2 = 0.2	763.27	1285.6	2.201
308.15 K, x2 = 0.3	763.98	1278.2	2.13
308.15 K, x2 = 0.4	764.98	1270.1	2.073
308.15 K, x2 = 0.5	766.36	1261	2.01
308.15 K, x2 = 0.6	768.26	1250.2	1.952
308.15 K, x2 = 0.7	770.89	1237.6	1.88
308.15 K, x2 = 0.8	774.74	1221.1	1.795
308.15 K, x2 = 0.9	780.63	1199.5	1.687
313.15 K, x2 = 0	759.49	1283.1	2.199
313.15 K, x2 = 0.1	759.29	1274.3	2.067
313.15 K, x2 = 0.2	759.67	1267.1	1.989
313.15 K, x2 = 0.3	760.33	1259.6	1.925
313.15 K, x2 = 0.4	761.29	1251.5	1.871
313.15 K, x2 = 0.5	762.61	1242.4	1.812
313.15 K, x2 = 0.6	764.45	1231.7	1.756
313.15 K, x2 = 0.7	767.03	1219.3	1.691
313.15 K, x2 = 0.8	770.82	1203.1	1.614
313.15 K, x2 = 0.9	776.63	1182	1.515
318.15 K, x2 = 0	756.05	1265	1.996
318.15 K, x2 = 0.1	755.74	1256	1.874
318.15 K, x2 = 0.2	756.07	1248.7	1.8
318.15 K, x2 = 0.3	756.67	1241.2	1.743
318.15 K, x2 = 0.4	757.58	1233	1.69
318.15 K, x2 = 0.5	758.84	1224	1.634
318.15 K, x2 = 0.6	760.62	1213.3	1.58
318.15 K, x2 = 0.7	763.14	1201.1	1.519
318.15 K, x2 = 0.8	766.85	1185.1	1.448
318.15 K, x2 = 0.9	772.59	1164.4	1.357
323.15 K, x2 = 0	752.61	1247.1	1.823
323.15 K, x2 = 0.1	752.19	1237.9	1.708
323.15 K, x2 = 0.2	752.45	1230.5	1.639
323.15 K, x2 = 0.3	753	1222.9	1.587
323.15 K, x2 = 0.4	753.84	1214.7	1.537
323.15 K, x2 = 0.5	755.05	1205.6	1.484
323.15 K, x2 = 0.6	756.76	1195.1	1.432
323.15 K, x2 = 0.7	759.22	1182.9	1.375
323.15 K, x2 = 0.8	762.85	1167.2	1.308
323.15 K, x2 = 0.9	768.51	1147	1.223
328.15 K, x2 = 0	749.18	1229.3	1.671
328.15 K, x2 = 0.1	748.64	1220	1.565
328.15 K, x2 = 0.2	748.83	1212.4	1.499
328.15 K, x2 = 0.3	749.32	1204.7	1.452
328.15 K, x2 = 0.4	750.09	1196.5	1.403
328.15 K, x2 = 0.5	751.23	1187.4	1.352
328.15 K, x2 = 0.6	752.86	1176.8	1.303
328.15 K, x2 = 0.7	755.25	1164.8	1.248
328.15 K, x2 = 0.8	758.8	1149.4	1.186
328.15 K, x2 = 0.9	764.37	1129.5	1.106
333.15 K, x2 = 0	745.74	1211.8	1.537
333.15 K, x2 = 0.1	745.09	1202.2	1.438
333.15 K, x2 = 0.2	745.2	1194.5	1.375
333.15 K, x2 = 0.3	745.61	1186.7	1.331
333.15 K, x2 = 0.4	746.31	1178.5	1.284
333.15 K, x2 = 0.5	747.38	1169.2	1.237
333.15 K, x2 = 0.6	748.93	1158.7	1.19
333.15 K, x2 = 0.7	751.24	1146.8	1.138
333.15 K, x2 = 0.8	754.7	1131.5	1.079
333.15 K, x2 = 0.9	760.17	1112.1	1.004
338.15 K, x2 = 0	742.31	1194.4	1.421
338.15 K, x2 = 0.1	741.53	1184.6	1.329
338.15 K, x2 = 0.2	741.55	1176.7	1.266
338.15 K, x2 = 0.3	741.89	1168.8	1.226
338.15 K, x2 = 0.4	742.52	1160.5	1.179
338.15 K, x2 = 0.5	743.5	1151.2	1.134
338.15 K, x2 = 0.6	744.97	1140.7	1.087
338.15 K, x2 = 0.7	747.19	1128.8	1.039
338.15 K, x2 = 0.8	750.55	1113.7	0.9835
338.15 K, x2 = 0.9	755.91	1094.6	0.9119
343.15 K, x2 = 0	738.88	1177.5	1.316
343.15 K, x2 = 0.1	737.98	1167.2	1.23
343.15 K, x2 = 0.2	737.89	1159.1	1.168
343.15 K, x2 = 0.3	738.15	1151.1	1.131
343.15 K, x2 = 0.4	738.69	1142.7	1.085
343.15 K, x2 = 0.5	739.59	1133.3	1.042
343.15 K, x2 = 0.6	740.96	1122.7	0.9894
343.15 K, x2 = 0.7	743.08	1110.9	0.9461
343.15 K, x2 = 0.8	746.33	1095.9	0.8985
343.15 K, x2 = 0.9	751.58	1077.1	0.8305
